Experimental data published in PMC5125089 (Lung cancer (Amsterdam, Netherlands), 2015).
Converted amounts (≈) assume the structure as drawn.

Key:
lung cancer = details: romidepsin monotherapy, previously treated lung cancer; cited from earlier work
EGFR pathway components = EGFR pathway components in skin biopsies; assay type: in vivo, patients; details: romidepsin monotherapy
histone H4 acetylation = assay: Histone H4 acetylation status in PBMCs; assay type: in vivo, patients; details: for normalized H4 acetylation values, mean increase: P < 0.01
histone H3 acetylation = assay: Histone H3 acetylation status in PBMCs; assay type: in vivo, patients; details: for normalized H3 acetylation values, mean increase: P < 0.01
NSCLC cell lines = details: cited from earlier work
[1] = phase 1 monotherapy trial; cited from earlier work
[2] = both 8 mg/m^2 and 10 mg/m^2 dose levels, P < 0.001

C#Cc1cccc(Nc2ncnc3cc(OCCOC)c(OCCOC)cc23)c1 [erlotinib]
Acneiform Rash, Possible Relationship to Erlotinib (human, in vivo): Y (7/7) | Acute kidney injury, Possible Relationship to Erlotinib (human, in vivo): Y (1/1) | Anorexia, Possible Relationship to Erlotinib (human, in vivo): Y (9/9) | Diarrhea, Possible Relationship to Erlotinib (human, in vivo): Y (9/11) | Dry Skin, Possible Relationship to Erlotinib (human, in vivo): Y (2/2) | Fatigue, Possible Relationship to Erlotinib (human, in vivo): Y (9/14) | Mouth Blister, Possible Relationship to Erlotinib (human, in vivo): Y (4/4) | Nausea, Possible Relationship to Erlotinib (human, in vivo): Y (4/14) | Vomiting, Possible Relationship to Erlotinib (human, in vivo): Y (5/14) | Weight Loss, Possible Relationship to Erlotinib (human, in vivo): Y (2/3) | ↑ Glucose, Possible Relationship to Erlotinib (human, in vivo): Y (1/3) | ↓ Hgb/Anemia, Possible Relationship to Erlotinib (human, in vivo): Y (2/5) | Dyspepsia, Possible Relationship to Erlotinib (in vivo): N | Sinus tachycardia, Possible Relationship to Erlotinib (in vivo): N | ↓ Potassium, Possible Relationship to Erlotinib (in vivo): N

C/C=C1\NC(=O)[C@H]2CSSCC/C=C/[C@H](CC(=O)N[C@H](C(C)C)C(=O)N2)OC(=O)[C@H](C(C)C)NC1=O [romidepsin]
maximum tolerated dose of romidepsin (in combination with erlotinib 150 mg orally daily, Days 1, 8, and 15 every 28 days, IV, with multi-drug antiemetic prophylaxis): 8 mg/m^2 | patients who achieved stable disease (lung cancer): 9 of 18 | effect on expression of EGFR, MAPK, or phospho-MAPK (EGFR pathway components): no discernible effect | effect on expression of phosphorylated EGFR (EGFR pathway components; day 3 pre-erlotinib, P = 0.09): trend toward decreased expression | normalized H4 acetylation values, mean increase (histone H4 acetylation; 8 mg/m^2 cohort): 3.20 ± 2.40 | normalized H4 acetylation values, mean increase (histone H4 acetylation; 10 mg/m^2 cohort): 2.26 ± 0.47 | effect on H4 histone acetylation (histone H4 acetylation; [2]): concomitant increase | normalized H3 acetylation values, mean increase (histone H3 acetylation; 8 mg/m^2 cohort): 2.10 ± 0.71 | normalized H3 acetylation values, mean increase (histone H3 acetylation; 10 mg/m^2 cohort): 2.18 ± 1.09 | effect on H3 histone acetylation (histone H3 acetylation; [2]): concomitant increase | IC50 against NSCLC cell lines in vitro (NSCLC cell lines): 2.25 ng/mL (≈ 4.16 nM) | dose-limiting toxicities [1]: grade 3 thrombocytopenia and fatigue
